Data on 10 compounds can be found in patent US9422293B2 (priority 2006, dated 2016).

Where a name gives a salt, the structure may show the parent alone.

rat TRPV1, sequence (O35433 whole entry): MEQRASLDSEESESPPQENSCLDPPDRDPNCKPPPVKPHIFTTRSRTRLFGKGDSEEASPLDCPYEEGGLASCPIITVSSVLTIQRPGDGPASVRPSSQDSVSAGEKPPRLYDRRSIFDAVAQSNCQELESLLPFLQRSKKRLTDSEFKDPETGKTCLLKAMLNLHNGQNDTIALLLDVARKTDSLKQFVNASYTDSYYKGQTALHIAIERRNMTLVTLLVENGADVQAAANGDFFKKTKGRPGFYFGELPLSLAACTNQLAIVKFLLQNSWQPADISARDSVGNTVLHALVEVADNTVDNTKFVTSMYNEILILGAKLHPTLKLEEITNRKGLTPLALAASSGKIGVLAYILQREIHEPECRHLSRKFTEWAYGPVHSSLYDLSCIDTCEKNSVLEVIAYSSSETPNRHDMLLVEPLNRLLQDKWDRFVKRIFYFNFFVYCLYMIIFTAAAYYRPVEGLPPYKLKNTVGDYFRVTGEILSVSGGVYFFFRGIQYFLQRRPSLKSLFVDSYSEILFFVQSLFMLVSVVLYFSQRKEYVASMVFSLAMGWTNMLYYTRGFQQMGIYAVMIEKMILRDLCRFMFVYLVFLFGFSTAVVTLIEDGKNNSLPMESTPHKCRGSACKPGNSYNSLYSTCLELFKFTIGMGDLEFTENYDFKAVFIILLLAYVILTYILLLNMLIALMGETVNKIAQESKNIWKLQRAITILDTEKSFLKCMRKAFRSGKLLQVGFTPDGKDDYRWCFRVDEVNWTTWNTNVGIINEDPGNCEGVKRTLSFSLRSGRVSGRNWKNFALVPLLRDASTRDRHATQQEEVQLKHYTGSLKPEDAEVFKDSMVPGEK

The assay addresses rat TRPV1 (Rattus norvegicus (Rat), UniProt O35433). The settings on record: read-out: Rat IC50.
Protocol: Biological Testing: Functional Assay: Block of Capsaicin-Induced Ca^2+ Influx A. Human Assay
Cells were passaged frequently, every 3-5 days, to avoid overgrowth, depletion of essential medium components, or acidic medium exposure. Cells were passaged using a brief wash in 0.05% trypsin with 1 mM EDTA, followed by dissociation in divalent-free phosphate-buffered saline (Hyclone #SH30028.02). […] The assay buffer was composed of 130 mM NaCl, 2 mM KCl, 2 mM MgCl2, 10 mM HEPES, 5 mM glucose, and either 2 mM or 20 μM CaCl2. On the day of the experiment, the culture medium was replaced with 2 mM calcium assay buffer using an automated plate washer (ELx405; Biotek, VT). […] After loading the cells, the dye solution was replaced with 50 μL/well of 20 μM calcium assay buffer using the ELx405 plate washer. Test compounds (50 μL/well) were added to the plate and incubated for 30 min. […] The IC50 values were determined. […] The contents of the wells were mixed 3 times (40 μL mix volume) immediately after the additions were made. Concentration dependence of block was determined by exposing each well of cells in duplicate rows of a 96 well plate to a serial dilution of test compound. The concentration series usually started at 10 μM with a three-fold serial decrement in concentration. The magnitude of the capsaicin response was determined by measuring the change in fluo3 fluorescence before and 100 seconds after the addition of the agonist. Data were analyzed using a non-linear regression program (Origin; OriginLab, MA). IC50 values shown are the average (mean) of the results obtained.
The assay was performed as described above, using HEK293 cells transfected with rat TRPV1 (rTRPV1/HEK293). […] IC50 values shown are the average (mean) of the results obtained.
With `Cc1cc(C(F)(F)F)ccc1Nc1nc(S(C)(=O)=O)nc2c1CCN(c1ncccc1C(F)(F)F)CC2` [Example 209, 2-(Methylsulfonyl)-N-[2-methyl-4-(trifluoromethyl)phenyl]-7-[3-(trifluoromethyl)pyridin-2-yl]-6,7,8,9-tetrahydro-5H-pyrimido[4,5-d]azepin-4-amine], the IC50 was found to be 3450 nM.
Take `O=S1(=O)CCCCN1c1nc2c(c(Nc3ccc(C(F)(F)F)cc3)n1)CCN(c1ncccc1C(F)(F)F)CC2` [Example 212, 2-(1,1-Dioxido-1,2-thiazinan-2-yl)-N-[4-(trifluoromethyl)phenyl]-7-[3-(trifluoromethyl)pyridin-2-yl]-6,7,8,9-tetrahydro-5H-pyrimido[4,5-d]azepin-4-amine trifluoroacetic acid salt]: the IC50 was 220 nM.
Under `COCCNc1nc2c(c(Nc3ccc(C(F)(F)F)cc3)n1)CCN(c1ncccc1C(F)(F)F)CC2` [Example 213, N^2-[2-(Methyloxy)ethyl]-N^4-[4-(trifluoromethyl)phenyl]-7-[3-(trifluoromethyl)pyridin-2-yl]-6,7,8,9-tetrahydro-5H-pyrimido[4,5-d]azepine-2,4-diamine trifluoroacetic acid salt] stands 110 nM; under `COC[C@@H]1CCCN1c1nc2c(c(Nc3ccc(C(F)(F)F)cc3)n1)CCN(c1ncccc1C(F)(F)F)CC2` [Example 215, 2-{(2S)-2-[(Methyloxy)methyl]pyrrolidin-1-yl}-N-[4-(trifluoromethyl)phenyl]-7-[3-(trifluoromethyl)pyridin-2-yl]-6,7,8,9-tetrahydro-5H-pyrimido[4,5-d]azepin-4-amine trifluoroacetic acid salt], 10 nM.
`CN(Cc1ccco1)c1nc2c(c(Nc3ccc(C(F)(F)F)cc3)n1)CCN(c1ncccc1C(F)(F)F)CC2` [Example 216, N^2-(Furan-2-ylmethyl)-N^2-methyl-N^4-[4-(trifluoromethyl)phenyl]-7-[3-(trifluoromethyl)pyridin-2-yl]-6,7,8,9-tetrahydro-5H-pyrimido[4,5-d]azepine-2,4-diamine trifluoroacetic acid salt]: the concentration for half-maximal inhibition (IC50) was 50 nM.
As to `FC(F)(F)c1ccc(Nc2nc(N3CCC3)nc3c2CCN(c2ncccc2C(F)(F)F)CC3)cn1` [Example 217, 2-Azetidin-1-yl-7-[3-(trifluoromethyl)pyridin-2-yl]-N-[6-(trifluoromethyl)pyridin-3-yl]-6,7,8,9-tetrahydro-5H-pyrimido[4,5-d]azepin-4-amine], the half-inhibitory concentration (IC50) was determined as 390 nM.
Under `CN(C)c1nc2c(c(NCc3ccc(C(F)(F)F)nc3)n1)CCN(c1ncccc1C(F)(F)F)CC2` [Example 218, N^2,N^2-Dimethyl-7-[3-(trifluoromethyl)pyridin-2-yl]-N^4-{[6-(trifluoromethyl)pyridin-3-yl]methyl}-6,7,8,9-tetrahydro-5H-pyrimido[4,5-d]azepine-2,4-diamine trifluoroacetic acid salt] stands 120 nM; under `CN1CCN(c2nc3c(c(Nc4ccc(C(F)(F)F)nc4)n2)CCN(c2ncccc2C(F)(F)F)CC3)CC1` [Example 220, 2-(4-Methylpiperazin-1-yl)-7-[3-(trifluoromethyl)pyridin-2-yl]-N-[6-(trifluoromethyl)pyridin-3-yl]-6,7,8,9-tetrahydro-5H-pyrimido[4,5-d]azepin-4-amine], 1520 nM; under `CN1CCN(c2nc3c(c(Nc4ccc(C(F)(F)F)c(Cl)c4)n2)CCN(c2ncccc2C(F)(F)F)CC3)CC1` [Example 221, N-[3-Chloro-4-(trifluoromethyl)phenyl]-2-(4-methylpiperazin-1-yl)-7-[3-(trifluoromethyl)pyridin-2-yl]-6,7,8,9-tetrahydro-5H-pyrimido[4,5-d]azepin-4-amine], 720 nM.
With `FC(F)(F)c1ccc(Nc2nc(N3CCCCCC3)nc3c2CCN(c2ncccc2C(F)(F)F)CC3)cc1` [Example 222, 2-Azepan-1-yl-N-[4-(trifluoromethyl)phenyl]-7-[3-(trifluoromethyl)pyridin-2-yl]-6,7,8,9-tetrahydro-5H-pyrimido[4,5-d]azepin-4-amine], the IC50 was 20 nM.
